Assay results: the supplement of paper PMC7029842
≈ marks a conversion by molar mass, not a printed value. ± gives the standard deviation of the averaged measurements.

Assays:
Test in all cases: minimum inhibitory concentration (MIC)
Details in all cases: incubation time: 18 h
[1] = system: Burkholderia cepacia ISS isolate s35
[2] = system: Burkholderia cepacia ISS isolate s41
[3] = system: Burkholderia contaminans ISS isolate s52
[4] = system: Burkholderia cepacia ISS isolate s18
[5] = system: Burkholderia cepacia ISS isolate s31
[6] = system: Burkholderia cepacia ISS isolate s20
[7] = system: Burkholderia cepacia ISS isolate s39
[8] = system: Burkholderia cepacia ISS isolate s22
[9] = system: Burkholderia contaminans ISS isolate s54
[10] = system: Burkholderia cepacia ISS isolate s37
[11] = system: Burkholderia contaminans ISS isolate s53
[12] = system: Burkholderia cepacia ISS isolate s57
[13] = system: Burkholderia cepacia ISS isolate s24
[14] = system: Burkholderia cepacia ISS isolate s25
[15] = system: Burkholderia cepacia ISS isolate s15
[16] = system: Burkholderia cepacia ATCC25416
[17] = system: Burkholderia contaminans ISS isolate s56
[18] = system: Burkholderia cepacia ISS isolate s28
[19] = system: Burkholderia cepacia ISS isolate s36
[20] = system: Burkholderia cepacia ISS isolate s16
[21] = system: Burkholderia cepacia ISS isolate s12
[22] = system: Burkholderia cepacia ISS isolate s9
[23] = system: Burkholderia contaminans ISS isolate s47
[24] = system: Burkholderia cepacia ISS isolate s23
[25] = system: Burkholderia contaminans J2956
[26] = system: Burkholderia cepacia ISS isolate s33

Compound	minimum inhibitory concentration [1] [µg/mL]	minimum inhibitory concentration [2] [µg/mL]	minimum inhibitory concentration [3] [µg/mL]	minimum inhibitory concentration [4] [µg/mL]	minimum inhibitory concentration [5] [µg/mL]	minimum inhibitory concentration [6] [µg/mL]	minimum inhibitory concentration [7] [µg/mL]	minimum inhibitory concentration [8] [µg/mL]	minimum inhibitory concentration [9] [µg/mL]	minimum inhibitory concentration [10] [µg/mL]	minimum inhibitory concentration [11] [µg/mL]	minimum inhibitory concentration [12] [µg/mL]	minimum inhibitory concentration [13] [µg/mL]	minimum inhibitory concentration [14] [µg/mL]	minimum inhibitory concentration [15] [µg/mL]	minimum inhibitory concentration [16] [µg/mL]	minimum inhibitory concentration [17] [µg/mL]	minimum inhibitory concentration [18] [µg/mL]	minimum inhibitory concentration [19] [µg/mL]	minimum inhibitory concentration [20] [µg/mL]	minimum inhibitory concentration [21] [µg/mL]	minimum inhibitory concentration [22] [µg/mL]	minimum inhibitory concentration [23] [µg/mL]	minimum inhibitory concentration [24] [µg/mL]	minimum inhibitory concentration [25] [µg/mL]	minimum inhibitory concentration [26] [µg/mL]
CC(C)(O/N=C(\C(=O)N[C@@H]1C(=O)N2C(C(=O)[O-])=C(C[n+]3ccccc3)CS[C@H]12)c1csc(N)n1)C(=O)O [ceftazidime]	3.17 ± 1.1 (≈ 5.81 µM)	3.17 ± 1.1 (≈ 5.81 µM)	8 (≈ 14.6 µM)	4 (≈ 7.32 µM)	4 (≈ 7.32 µM)	4 (≈ 7.32 µM)	3.17 ± 1.1 (≈ 5.81 µM)	4 (≈ 7.32 µM)	8 (≈ 14.6 µM)	2 ± 2 (≈ 3.66 µM)	8 (≈ 14.6 µM)	3.17 ± 1.1 (≈ 5.81 µM)	4 (≈ 7.32 µM)	4 (≈ 7.32 µM)	4.58 ± 1.1 (≈ 8.38 µM)	12.7 ± 4.6 (≈ 23.2 µM)	8 (≈ 14.6 µM)	4 (≈ 7.32 µM)	4 (≈ 7.32 µM)	4 (≈ 7.32 µM)	4 (≈ 7.32 µM)	4 (≈ 7.32 µM)	8 (≈ 14.6 µM)	4 (≈ 7.32 µM)	8 (≈ 14.6 µM)	4 (≈ 7.32 µM)
CN(C)c1ccc(O)c2c1C[C@H]1C[C@H]3[C@H](N(C)C)C(O)=C(C(N)=O)C(=O)[C@@]3(O)C(O)=C1C2=O [minocycline]	8 (≈ 17.5 µM)	8 ± 6.1 (≈ 17.5 µM)	2 (≈ 4.37 µM)	6.35 ± 7 (≈ 13.9 µM)	4 (≈ 8.74 µM)	6.35 ± 7 (≈ 13.9 µM)	6.35 ± 6.9 (≈ 13.9 µM)	6.35 ± 2.3 (≈ 13.9 µM)	2 (≈ 4.37 µM)	6.35 ± 2.3 (≈ 13.9 µM)	2 (≈ 4.37 µM)	2 (≈ 4.37 µM)	12.7 ± 14 (≈ 27.8 µM)	8 ± 6.1 (≈ 17.5 µM)	12.7 ± 4.6 (≈ 27.8 µM)	1.59 ± 0.58 (≈ 3.47 µM)	2.52 ± 1.1 (≈ 5.51 µM)	10.1 ± 15 (≈ 22 µM)	6.35 ± 6.9 (≈ 13.9 µM)	5.04 ± 3.5 (≈ 11 µM)	3.17 ± 1.1 (≈ 6.94 µM)	6.35 ± 6.9 (≈ 13.9 µM)	3.17 ± 3.5 (≈ 6.94 µM)	8 ± 6.1 (≈ 17.5 µM)	2 (≈ 4.37 µM)	12.7 ± 4.6 (≈ 27.8 µM)
